This note sets out measurements from patent US10793526B2, “Hydantoin derivative compounds, methods of use and methods of treatment” (University of South Florida, priority 2016, dated 2020).

Read-outs that look alike come from different tables or passages of the source. Some results are limits rather than exact numbers.

Data set [1] has as its system methicillin-resistant S. aureus (MRSA, ATCC 33591). Description: Minimum inhibitory concentration (MIC) assay, MRSA. The data set is classed as cell-based, Staphylococcus aureus. The note with it: for MIC: Staphylococcus aureus. As for the experimental part:
(§1) Minimum inhibitory concentrations (MICs) assay.^2
(§2) All compounds were tested against six different bacteria strains: methicillin-resistant S. aureus (MRSA, ATCC 33591), E. coli (ATCC 25922), methicillin-resistant S. epidermidis (MRSE, RP62A), K. pneumoniae (ATCC 13383), vancomycin-resistant Enterococcus faecalis (VREF, ATCC 700802), P. aeruginosa (ATCC 27853). One colony of each bacteria was inoculated in 4 mL TSB buffer at 37° C. overnight, which was then diluted 100 times, and the bacteria were allowed to grow to the mid-logarithmic phase. 50 μL hydantoin compounds in 2-fold serial dilution of TSB were added in the 96-well plate, then 50 μL diluted bacterial in TSB medium (1×10^6 CFU/mL) was added to each well. After 16 h of incubation at 37° C., the absorption at 600 nm wavelength on a Biotek Synergy HT microtiter plate reader was recorded. Minimum inhibitory concentrations were determined as the lowest concentrations that inhibited bacteria growth completely.

For data set [2], the system named is methicillin-resistant S. epidermidis (MRSE, RP62A). Description: Minimum inhibitory concentration (MIC) assay, MRSE. Format: cell-based, Staphylococcus epidermidis. The note with it: Gram positive, 16 h incubation; for MIC: Staphylococcus epidermidis, MRSE, read-out: MIC (μg/mL) MRSE. The procedure:
as §1, §2

The test system of data set [3] is vancomycin-resistant Enterococcus faecalis (VREF, ATCC 700802). Description: Minimum inhibitory concentration (MIC) assay, VREF. The data set is classed as cell-based. The note with it: 16 h incubation; for MIC: Enterococcus faecalis, ATCC700802, Gram positive, read-out: MIC (μg/mL) VREF; for MIC (μg/mL) VREF: Gram positive. As for the experimental part: as §1, §2

A further data set has as its system E. coli (ATCC 25922). Nature of the data set: Minimum inhibitory concentration (MIC) assay, E. coli. The note with it: 16 h incubation; for MIC: Escherichia coli, ATCC25922, Gram negative, read-out: MIC (μg/mL) E. coli; for MIC (μg/mL) E. coli: Gram negative. Format: cell-based, Escherichia coli. As for the experimental part:
as §1, §2

Data set [4] relates to P. aeruginosa (ATCC 27853). Nature of the data set: Minimum inhibitory concentration (MIC) assay, P. aeruginosa. Format: cell-based, Pseudomonas aeruginosa. As to conditions: Gram negative, ATCC 27853, 16 h incubation; for MIC: Pseudomonas aeruginosa, ATCC27853, read-out: MIC (μg/mL) P.A. As for the experimental part: as §1, §2
Data set [5] has as its system K. pneumoniae (ATCC 13383). Nature of the data set: Minimum inhibitory concentration (MIC) assay, K. pneumoniae. The data set is classed as cell-based, Klebsiella pneumoniae. The note with it: 16 h incubation; for MIC: Klebsiella pneumoniae, ATCC13383, Gram negative, read-out: MIC (μg/mL) K.P.; for MIC (μg/mL) K.P.: Gram negative. As for the experimental part:
as §1, §2

The test system of data set [6] is red blood cells (RBCs) of mice. Description: Hemolytic assay. Format: cell-based. As for the experimental part:
Fresh red blood cells (RBCs) of mice were washed with 1×PBS buffer and centrifuged 10 min at 3500 rpm for 3 times until the supernatant was clear, then RBCs were diluted into 5% v/v suspension in 1×PBS. 50 μL compounds in PBS were 2-fold serially diluted in a 96-well plate, and incubated with 50 μL RBCs suspension for 1 h at 37° C. The mixture was then centrifuged for 10 min at 3500 rpm. Subsequently, 30 μL of the supernatant was added to 100 μL PBS, then the absorbance of mixture was read on a Biotek Synergy HT plate reader at 540 nm. The hemolytic activity was calculated by the formula % hemolysis=(Abssample−AbsPBS)/(AbsTriton−AbsPBS)×100%. 1% Triton X-100 were used as the positive control and 1×PBS buffer was used as the negative control.

The test system of data set [7] is panel of Gram-positive and Gram-negative bacteria. Nature of the data set: Antimicrobial activity against the whole panel of bacteria. The data set is classed as cell-based. The note with it: for antimicrobial activity across the tested bacterial strains: all tested strains; for antibacterial activity of compounds with HPLC RT values less than 26 min: statement relating activity to retention time. The procedure:
as §1, §2

The subject of data set [8] is MRSA-induced lung inflammation. Nature of the data set: Rat model of MRSA-induced pneumonia, pathological analysis (H&E). The data set is classed as in vivo. As to conditions: 10 mg/kg i.v. The procedure: The rat model of MRSA-induced pneumonia.^4, 5
The protocol of animal studies was approved by the institutional committee for animal care of Nanjing University, and the experiments were conducted following the regulation of the National Ministry of Health of China. In Brief, male Wistar rats (6-8 weeks, ˜200 g in average weight) were subjected to fast for 12 h. Next, rats were anesthetized by intraperitoneal administration of 0.35 g/kg of chloral hydrate. To induce MRSA pneumonia, the trachea of rats were exposed, to which 100 μL PBS containing 2×10^6 CFU/mL MRSA in PBS was slowly injected. The rats were retained upright for 1 min, and the cut was sealed. The MRSA infection was allowed to develop for 24 h.
The hydantoin compound 22 or vancomycin were used as antibiotics in the study. In brief, a dose of 10 mg/kg of the drug was injected to the tested rats intravenously. On the day of 3 and 5, rats were sacrificed, and lung sections were stained with hematoxylin and eosin (H&E), and their morphology was investigated under a light microscope at 100× magnification. The existence (indicated by the infiltration of neutrophils) and the extent of possible inflammatory response (indicated by the integrity of the alveolar structure and endothelium cilium) were recorded from at least five randomly picked sections by an experienced physician.

Where [9] appears, read: Gram positive, ATCC 33591, 16 h incubation, read-out: MIC (μg/mL) MRSA.
Where [10] appears, read: hemolytic activity, mouse RBCs, 1 h at 37° C.
Where [11] appears, read: Gram positive, ATCC 33591, 16 h incubation.

`CCCCCCCCCCCCCC(=O)N[C@@H](CCCCN)CN1CC(=O)N(CC)C1=O` [Compound 3, (S)—N-(6-amino-1-(3-ethyl-2,4-dioxoimidazolidin-1-yl)hexan-2-yl)tetradecanamide]: the MIC in data set [1] (setting [9]) amounted to 6.25 µg/mL; in data set [2], 6.25 µg/mL; in data set [3], 6.25 µg/mL; in the data set with E. coli (ATCC 25922), 3.12 µg/mL; in data set [4] it was 12.5 µg/mL; in data set [5] it was 6.25 µg/mL. In addition, the “MIC (μg/mL) P.A.” value in [4] came to 12.5 µg/mL. Also, the “HC50” value in [6] (setting [10]) was 90 µg/mL. Also, in data set [7], the “antimicrobial activity across the tested bacterial strains” value was “comparable activity to nitrofurantoin against most strains”.
For the compound `CCCCCCCCCCCC(=O)N[C@@H](CCCCN)CN1CC(=O)N(CCCC)C1=O` [Compound 6, (S)—N-(6-amino-1-(3-butyl-2,4-dioxoimidazolidin-1-yl)hexan-2-yl)dodecanamide], the MIC in [1] (setting [9]) is 12.5 µg/mL; in [2] it was 25 µg/mL; in data set [3], 25 µg/mL; in the data set with E. coli (ATCC 25922), 6.25 µg/mL; in [4], 25 µg/mL; in data set [5], 12.5 µg/mL. Moreover, the “HC50” value in data set [6] (setting [10]) was found to be 80 µg/mL. For the same compound, the “antibacterial activity of compounds with HPLC RT values less than 26 min” value (“antibacterial activity of compounds” for short) in data set [7] was “no apparent antibacterial activity”.
Consider `CCCCCCCCCC(=O)N[C@@H](CCCCN)CN1CC(=O)N(C2CCCCC2)C1=O` [Compound 9, (S)—N-(6-amino-1-(3-cyclohexyl-2,4-dioxoimidazolidin-1-yl)hexan-2-yl)decanamide], for which the MIC in [1] (setting [9]) is 25 µg/mL; in data set [2], greater than 50 µg/mL; in data set [3] it was greater than 50 µg/mL; with E. coli (ATCC 25922) it was 12.5 µg/mL; in [4], greater than 50 µg/mL; in data set [5], 25 µg/mL. The “antimicrobial activity across the tested bacterial strains” value in data set [7] was “starts to show activity toward a few bacterial strains”. For the same compound, the “antibacterial activity of compounds” value in data set [7] is on record as “no apparent antibacterial activity”.
In the case of `CCCCCCCCCCCC(=O)N[C@@H](CCCCN)CN1CC(=O)N(C2CCCCC2)C1=O` [Compound 10, (S)—N-(6-amino-1-(3-cyclohexyl-2,4-dioxoimidazolidin-1-yl)hexan-2-yl)dodecanamide], the MIC worked out at 6.25 µg/mL in [1] (setting [9]); 6.25 µg/mL in data set [2]; 12.5 µg/mL in data set [3]; 6.25 µg/mL with E. coli (ATCC 25922); 12.5 µg/mL in data set [4]; 6.25 µg/mL in [5]. The “HC50” value in data set [6] (setting [10]) came to 100 µg/mL.
With `CCCCCCCCCC(=O)N[C@@H](CCCCN)CN1CC(=O)N(C23CC4CC(CC(C4)C2)C3)C1=O` [Compound 13, N—((S)-1-(3-((3R,5R,7R)-adamantan-1-yl)-2,4-dioxoimidazolidin-1-yl)-6-aminohexan-2-yl) decanamide], in [1] (setting [11]), the “MIC (μg/mL) MRSA” value was determined as 6.25 µg/mL. In addition, the “MIC of MRSA” value in [1] (Table 2) turned out to be 6.25 µg/mL. In addition, the “MIC (μg/mL) MRSE” value in data set [2] worked out at 6.25 µg/mL. In data set [3], the “MIC (μg/mL) VREF” value amounted to 12.5 µg/mL. In addition, the “MIC (μg/mL) E. coli” value with E. coli (ATCC 25922) was 6.25 µg/mL. Also, in data set [4], the “MIC (μg/mL) P.A.” value came to 12.5 µg/mL. In [5], the “MIC (μg/mL) K.P.” value amounted to 6.25 µg/mL. The “HC50” value in [6] amounted to 125 µg/mL. For the same compound, the “antimicrobial activity across the tested bacterial strains” value in [7] was “exhibits decent activity across the panel of bacteria”.
As for `CCCCCCCCCC(=O)N[C@@H](CCCCN)CN1CC(=O)N(c2ccc(OC)cc2)C1=O` [Compound 17, (S)—N-(6-amino-1-(3-(4-methoxyphenyl)-2,4-dioxoimidazolidin-1-yl)hexan-2-yl)decanamide], the MIC (in data set [1] (setting [9]); in data set [2]; in data set [3]; with E. coli (ATCC 25922); in [4]; in data set [5]) was greater than 50 µg/mL each time. In addition, the “antibacterial activity of compounds” value in data set [7] was “no apparent antibacterial activity”.
For `CCCCCCCCCCCC(=O)N[C@@H](CCCCN)CN1CC(=O)N(c2ccc(OC)cc2)C1=O` [Compound 18, (S)—N-(6-amino-1-(3-(4-methoxyphenyl)-2,4-dioxoimidazolidin-1-yl)hexan-2-yl)dodecan amide], the “MIC (μg/mL) MRSA” value in [1] (setting [11]) turned out to be 25 µg/mL. Further, the “MIC of MRSA” value in [1] (Table 2) is 25 µg/mL. Besides, the “MIC (μg/mL) MRSE” value in [2] was found to be 25 µg/mL. In [3], the “MIC (μg/mL) VREF” value was determined as 25 µg/mL. Besides, the “MIC (μg/mL) E. coli” value in the data set with E. coli (ATCC 25922) came out at 12.5 µg/mL. The “MIC (μg/mL) P.A.” value in [4] worked out at 12.5 µg/mL. Further, the “MIC (μg/mL) K.P.” value in [5] came to 12.5 µg/mL. Besides, the “HC50” value in data set [6] amounted to 200 µg/mL. The “antibacterial activity of compounds” value in data set [7] is “no apparent antibacterial activity”.
Regarding `CCCCCCCCCC(=O)N[C@@H](CCCCN)CN1CC(=O)N(c2cccc(Cl)c2)C1=O` [Compound 21, (S)—N-(6-amino-1-(3-(3-chlorophenyl)-2,4-dioxoimidazolidin-1-yl)hexan-2-yl)decanamide], the MIC in data set [1] (Table 2, read-out: MIC of MRSA) came to 6.25 µg/mL; in [2] it was 6.25 µg/mL; in data set [3] it was 12.5 µg/mL; in the data set with E. coli (ATCC 25922), 6.25 µg/mL; in [4], 6.25 µg/mL; in data set [5], 6.25 µg/mL. Moreover, the “HC50” value in [6] (setting [10]) is 100 µg/mL.
Consider `CCCCCCCCCCCC(=O)N[C@@H](Cc1ccccc1)CN1CC(=O)N(c2cccc(Cl)c2)C1=O` [Compound 25, (S)—N-(1-(3-(3-chlorophenyl)-2,4-dioxoimidazolidin-1-yl)-3-phenylpropan-2-yl)dodecanamide], for which the MIC (in data set [1] (setting [9]); in [2]; in data set [3]; in the data set on E. coli (ATCC 25922); in [4]; in data set [5]) was greater than 50 µg/mL throughout. Also, the “antimicrobial activity across the tested bacterial strains” value in data set [7] is listed as “fails to show any antimicrobial activity”. In data set [7], the “antibacterial activity of compounds” value is given as “no apparent antibacterial activity”.
In the case of `O=C1CN(/N=C/c2ccc([N+](=O)[O-])o2)C(=O)N1` [Compound 26, nitrofurantoin, reference compound], the MIC in data set [1] (setting [9]) is 12.5 µg/mL; in [2] it was 6.25 µg/mL; in [3] it was 12.5 µg/mL; with E. coli (ATCC 25922), 6.25 µg/mL; in [4] it was greater than 50 µg/mL; in data set [5] it was 25 µg/mL. The MIC in data set [7] (range over most strains of the panel, read-out: MICs against most of bacteria) is 6.25 to 25 µg/mL.
For the compound `CN[C@H](CC(C)C)C(=O)N[C@H]1C(=O)N[C@@H](CC(N)=O)C(=O)N[C@H]2C(=O)N[C@H]3C(=O)N[C@H](C(=O)N[C@H](C(=O)O)c4cc(O)cc(O)c4-c4cc3ccc4O)[C@H](O)c3ccc(c(Cl)c3)Oc3cc2cc(c3O[C@@H]2O[C@H](CO)[C@@H](O)[C@H](O)[C@H]2O[C@H]2C[C@](C)(N)[C@H](O)[C@H](C)O2)Oc2ccc(cc2Cl)[C@H]1O` [vancomycin, reference compound], the “lung inflammation (H&E staining), day not given” value in data set [8] is listed as “alleviated condition”.
